Laboratory results published in paper PMC10661964 (Current Drug Metabolism, 2023).
Like-named read-outs stand apart in the source and are kept apart here. Marks after values point to notes of the source that are not given here.

Assays:
[1] = Quantification of nifurtimox and metabolites in human urine (LC-HRMS); type: in vivo; conditions: single oral 120 mg nifurtimox; for AE,urine(0–24h), fasted patients: mean of 6 fasted patients with Chagas disease; for AE,urine(0–24h), fed patients: mean of 6 fed patients with Chagas disease
Description: Urine samples were collected from fasted and fed patients pre-dose (0 h) and at four post-dose intervals (0-4, 4-8, 8-12, and 12-24 h) and stored frozen until required. For analysis, urine samples were thawed at room temperature and homogenized by vortex mixing. […] Equal volumes (75 µL) of an internal standard solution of [^2H8]-nifurtimox dissolved in water (10 µg/mL) were added to each urine, calibration, or control sample and mixed thoroughly. Samples from 6 patients were then analyzed using liquid chromatography-high-resolution mass spectrometry (LC-HRMS) with a 1290 Infinity LC system equipped with a diode array detector and an Orbitrap Fusion™ Lumos™ Tribrid™ HRMS (Thermo Fisher Scientific, Bremen, Germany) with a heated electrospray ionization source. For quantification, the LC conditions were as described above for analysis of rat plasma, and the HRMS parameters were: mass range, 120-600 Da in full scan mode and all ion fragmentation in positive ionization mode; resolution, 240,000; ion source voltage, 3500 V; capillary temperature, 300°C; source temperature, 60°C.
The system was calibrated using the relative peak area as a function of concentration, which was obtained by linear regression. Quantification was performed on a mass basis (μg/mL), with the final calculation for the percentage of dose excreted in urine made on a molar basis to account for the substantial differences (up to ~2.5-fold) in the molecular masses of the compounds of interest. The analytical precision for all analytes was in the range of 1.1% to 4.4%, with an accuracy of 94% to 107%. All concentrations in μg/mL were back-calculated to nmol/mL, and these concentrations were then used to calculate a total molar amount based on the urine volume collected during each interval.

[2] = Quantification of nifurtimox and metabolites in human plasma (LC-HRMS), plasma PK; type: in vivo; conditions: fed; for AUC(tlast-∞) (extrapolated proportion): pooled plasma of 6 patients, single oral 120 mg nifurtimox; for AUC, % of total quantified exposure: sum of AUC of nifurtimox and M-1 to M-6 = 100%, single oral 120 mg
Description: Plasma samples from timepoints 0, 0.25, 0.5, 0.75, 1, 1.5, 2, 2.5, 3, 4, 6, 8, 12, 15, and 24 h from 6 patients were analyzed. Blood samples were collected into lithium heparinized tubes. Blood cells and plasma were then separated by centrifugation, and the plasma was stored frozen until needed. For the analysis, plasma samples were thawed at room temperature and homogenized by vortex mixing. Equal volumes of plasma from the six patients for each timepoint were combined to a pooled volume of 200 µL. To precipitate protein, a 3-fold volume of acetonitrile/0.5% formic acid (v/v in water) was added to each pooled sample which was thoroughly mixed and then centrifuged at 20,000 g. […] For all analytes, the analytical precision ranged from 0.1% to 8.8%, and the accuracy was 95% to 108%.

[3] = Stability study: metabolite profiles in snap-frozen plasma and urine at early timepoints after oral [14C]-nifurtimox; type: in vivo, male Wistar rats; conditions: oral 2.5 mg/kg, snap-frozen
Description: (§1) Animals were housed in suitable metabolism cages. […] Blood cells and plasma were separated by centrifugation. Plasma was stored at ≤-15°C prior to analysis. […] All biological samples were weighed immediately. […] The remaining carcass was also wet-weighed.
The combined supernatant was analyzed directly using HPLC-LSC.

[4] = Quantification of nifurtimox and metabolites in rat plasma after a single high dose (200 mg/kg); type: in vivo, Wistar rats; conditions: Wistar, rat, plasma, po, 200 mg/kg
Description: Blood cells and plasma were then separated by centrifugation, and the plasma was stored at ≤-15°C until required. For analysis, plasma samples were thawed at room temperature and homogenized by vortex mixing. Plasma samples were pooled separately for male and female rats by combining 25 µL from each of the 4 animals for each timepoint. […] To each pooled plasma (100 µL), calibration, or control sample, 300 µL of an internal standard solution containing [^2H8]-nifurtimox (500 ng/mL) and [^2H3]-M-6 (2500 ng/mL) in acetonitrile + 0.5% formic acid in water (v/v) was added and mixed thoroughly. All samples were then centrifuged (20,000 g, 5 min) to precipitate the protein. The supernatant was analyzed using a 1290 Infinity LC system equipped with a diode array detector and an Orbitrap Q-Exactive Plus HRMS (Thermo Fisher Scientific, Bremen, Germany) with a heated electrospray ionization source. […] The mobile phase gradient was: 0 min, 0% B; 2.5 min, 0% B; 3 min, 20% B; 8 min, 45% B; 9 min, 90% B; 10.1 min, 90% B; 12 min, 0% B; 13 min, 0% B. The following HRMS parameters were used: mass range, 120-200 Da (0-2.5 min) and 230-600 Da (2.5-13 min) in full scan mode; resolution, 280,000; ion source voltage, 3500 V; capillary temperature, 300°C; source temperature, 60°C.
The calibration was based on the relative peak area as a function of concentration obtained by linear regression. […] Thus, all concentrations in μg/mL were back-calculated to nmol/mL. The PK parameters for each analyte were calculated using ToxKin software, as described above.

[5] = Plasma PK of total radioactivity, [14C]-nifurtimox and metabolites after oral dosing (HPLC-LSC); type: in vivo; conditions: male Wistar rats; for %AUC(0-8) (relative to total radioactivity AUC(0-8)): oral 2.5 mg/kg, M-2+M-3, M-4, M-5 are estimates based on AUC(0-tn); for half-life / Tmax: rat; for half-life: plasma, interval up to 8 h, read-out: t½ (converted)
Description: as §1
Aliquots of individual plasma samples were pooled separately for each timepoint by equal volume. For protein precipitation, pooled plasma was treated with a three-fold volume of acetonitrile. Samples were homogenized and precipitated by centrifugation (20,000 g, 5 min). Samples were concentrated and analyzed using high-performance liquid chromatography (HPLC) with off-line radioactivity detection by LSC (HPLC-LSC).

[6] = Mass balance and metabolite profiling in excreta after oral [14C]-nifurtimox in intact rats; conditions: intact male Wistar rats, 2.5 mg/kg oral, up to 120 h; 2.5 mg/kg
Description: After an adaption period, the animals were prepared for the study. Bile duct cannulation was performed on selected animals the day before their use in experiments.
In a mass balance study (n = 5) and a PK study (n = 2 per timepoint), 2.5 mg/kg b.w. […] For i.v. administration, 2.5 mg/kg b.w. […] In an additional stability study, male Wistar rats (n = 3 per timepoint) were administered 2.5 mg/kg b.w. […] The total radioactivity concentration in the dosage form was confirmed by liquid scintillation counting (LSC).
Animals were housed in suitable metabolism cages. Blood was collected from separate rats at 0.25, 0.5, 1, 1.5, 2, 3, 5, and 8 h post-dose and stored in lithium heparinized tubes. Blood cells and plasma were separated by centrifugation. Plasma was stored at ≤-15°C prior to analysis. […] At the end of the study, the cages were rinsed with water, and samples were collected. All biological samples were weighed immediately. Feces samples were homogenized with water to obtain a uniform radioactivity distribution. All samples were stored deep-frozen at ≤-15/-70°C before further processing. During the necropsy, selected organs and tissues were collected and wet-weighed. The remaining carcass was also wet-weighed. The carcass and all tissues were homogenized and stored at room temperature prior to processing for analysis. In the stability study, blood and urine were collected at 0.25 and 0.5 h post-dose. Plasma and urine were immediately frozen in liquid nitrogen and stored at -80°C to prevent degradation. The total radioactivity in samples and tissues was determined by LSC after appropriate sample preparation.
Aliquots of individual urine or bile samples were pooled separately for each time interval by equal volume and analyzed using HPLC-LSC. Aliquots of individual feces samples were pooled separately for each time interval, ensuring that each aliquot contained the same amount of radioactivity. The pooled samples were extracted twice with a mixture of acetonitrile/water (80:20 v/v, 2 x 0.5 mL). The resulting suspensions were centrifuged (20,000 g, 5 min), and the supernatants were then combined for each time interval, concentrated, and subjected to HPLC-LSC.
The amount of total radioactivity in urine, feces, bile, and tissues was determined by multiplying the volume or weight of the samples by the respective total radioactivity concentration. The amount of radioactivity recovered in the excreta (AE), cage wash, and tissues was compared with the administered radioactive dose to establish the radioactive balance. Cumulative excretion was calculated as the sum of the excretion for each collection interval. Arithmetic means and coefficients of variation (CV) were calculated for these percentages. During metabolite profiling, the concentration or amount of each analyte for each sample and timepoint or interval was calculated by multiplying the total radioactivity concentration or amount excreted of each sample with the percent area of each analyte obtained after HPLC-LSC separation.

[7] = female, read-out: AUC(0–24), female animals
[8] = female, read-out: AUC, female animals
[9] = female, read-out: Cmax, female animals
[10] = female, read-out: tmax, female animals
[11] = female, read-out: t½, female animals (converted)
[12] = male, read-out: AUC(0–24), male animals
[13] = male, read-out: AUC, male animals
[14] = male, read-out: Cmax, male animals
[15] = male, read-out: tmax, male animals
[16] = male, read-out: t½, male animals (converted)
[17] = single oral 2.5 mg/kg [14C]-nifurtimox, pooled plasma
[18] = single oral 2.5 mg/kg [14C]-nifurtimox

Compound	AE,urine(0–24h), fasted patients [1]	AE,urine(0–24h), fed patients [1]	AUC(tlast-∞) (extrapolated proportion) [2] [%]	AUC, % of total quantified exposure [2]	AUC(0-t) [4, 7] [µM·h]	AUC [4, 8] [µM·h]	Cmax [4, 9] [nM]	Tmax [4, 10] [h]	half-life [4, 11] [min]	AUC(0-t) [4, 12] [µM·h]	AUC [4, 13] [µM·h]	Cmax [4, 14] [nM]	Tmax [4, 15] [h]	half-life [4, 16] [min]	AUC [5, 17] [µg-eq*h/L]	AUC(0-tn) [5, 17] [µg-eq*h/L]	Cmax [5, 17] [µg-eq/L]	tn (time of last quantifiable concentration) [5, 17] [h]	half-life [5, 18] [min]	Tmax [5, 17] [h]	other results
CC1CS(=O)(=O)CCN1/N=C/C(=O)CCC#N (stereo not drawn) [M-1]	3.2 % of dose	2.0 % of dose	7.6	1.8%	36.7	44.2	2050	8	276	28.2	46.6	1390	24	252	767	715	138	8	81.6	3	share of sample radioactivity in plasma ([3]; 0.25 h post-dose): 1.4 % of sample radioactivity; share of sample radioactivity in plasma ([3]; 0.5 h post-dose): 2.3 % of sample radioactivity; %AUC(0-8) (relative to total radioactivity AUC(0-8)) [5]: 16.1%; AUC(0-8) [5, 17]: 715 µg-eq*h/L; component excreted in feces, oral dosing [6]: 1.5 % of the administered dose
CC1CS(=O)(=O)CCN1/N=C/C(CCC(=O)O)=N\O (stereo not drawn) [M-2]	1.0 % of dose	2.4 % of dose	7.8	1.4%	3.22	3.63	447	2	510	3.31	13.4	220	2	3800							
CC1CS(=O)(=O)CCN1/N=C/C(=O)CCC(=O)O (stereo not drawn) [M-3]	0.06 % of dose	0.15 % of dose	49.2	1.2^a %	3.54	3.7	547	1	348	3.64	10.1	255	1	2380							component excreted in feces, oral dosing [6]: 3.6 % of the administered dose
CC(=O)NC(CSc1ccc(=O)n(N2CCS(=O)(=O)CC2C)c1)C(=O)O (stereo not drawn) [M-5]	3.4 % of dose	6.6 % of dose	11.7	0.5%	1.42	2.43	186	3	1520	4.64	8.02	328	3	492	177	102	32.1	5	226	1.5	%AUC(0-8) (relative to total radioactivity AUC(0-8)) ([5]; 2.5 mg/kg): 2.30^c %
